{"source": "patent US6933315B2", "about": "“Derivatives of isoindigo, indigo and indirubin and methods of treating cancer” (priority 2001, dated 2005)", "key": {"[1]": {"system": "Lewis Lung Cancer", "assay": "Anticancer activity in Lewis lung carcinoma animal model", "assay_type": "in vivo, C57 mice", "conditions": "mice, oral, Indirubin 100 × 9, Meisoindigo 106 × 9 mg/kgxd", "description": "Briefly, C57 mice, body weight between 18 to 22 grams, and rat, body weight between 50 to 55 grams, were randomly divided into several groups, ten of each, respectively. Approximately 2×10^6 of Lewis cancer cells or Walker sarcoma cells were transplanted into mice or rat. […] The animals in the control group were given 0.1 ml saline (drug vehicle, negative control) for the same periods of time as treated group. The animals at end of the treatment were sacrificed and tumors were removed and weighed."}, "[2]": {"parameters": "species or system dogs", "conditions": "dog, in vivo", "experimental": "Two dogs were initially tested for sub-acute toxicity of Meisoindigo. They were orally given 10 mg/kg daily for 3 months.\nSince no major toxicities were found during the initial study, an additional 3 dogs were tested by orally giving them a higher dose (20 mg/kg). Among them, one dog was given 20 mg/kg for 46 days, and another 2 dogs given for 2 months. […] However, all of those symptoms disappeared after the termination of the treatment of Meisoindigo."}, "[3]": {"assay": "Chronic toxicity in dogs", "assay_type": "in vivo", "experimental": "On the basis of above initial tests, the sub-acute toxicities of Meisoindigo were further examined in dogs. Twelve dogs were randomly divided into 3 groups each having equal numbers of males and females, and orally given Meisoindigo at doses of 0, 5, and 10 mg/kg daily, respectively, for 6 months. […] All parameters tested, in all animals, including controls fluctuated within normal ranges.\nTwenty-four hours after the termination of Meisoindigo, half of the animal of each group were sacrificed, and dissected for pathological examination."}, "[4]": {"system": "TA97, TA98, TA100 and TA102", "assay": "Reverse mutation, Ames test", "assay_type": "cell-based, salmonella typhimurium", "conditions": "+S9 and −S9, Meisoindigo 2, 20, 50, 100 and 200 μg/dish", "experimental": "Meisoindigo at concentrations of 2, 20, 50, 100 and 200 μg/dish (10 cm), metabolically activated (+S9) and inactivated (−S9), were tested in strains of TA97, TA98, TA100 and TA102 (amino acid deficit salmonella typhimurium) respectively. Daunomycin, 2-aminofluorene (2AF), methylmethanesulfonate (MMS), 2,7-2AF, and 2-hydroxy-anthraquinone were used as positive controls."}, "[5]": {"system": "cdk2", "assay": "cdk2 activity immuno-precipitated from treated LNCaP cells", "assay_type": "cell-based, Human", "conditions": "24 hours incubation with LNCaP cells", "experimental": "(§1) Assay for cyclin dependent kinase activity: HUVEC and LNCaP cells were cultured in EMB (endothelial cell basal medium) and RPMI 1640 containing 10% FBS, respectively. The cells grown exponentially were exposed to indicated concentrations of meisoindigo or NATURA for 24 hr. The cells were harvested, washed, and total proteins extracted as described previously. One hundred μg of the proteins were immuno-precipitated using antibodies against cdk2, cdk4/6, PKC, ERK2 or cyclin D1 overnight at 4° C. in the presence of a cocktail of protease inhibitors. The immuno-precipitates were washed 4 times with protein extraction buffer and once with kinase assay buffer, and reacted with 75 μg/ml histone H1 in the presence of [γ-^32P]-ATP (2.5 μCi/10 μM). The phosphorylated histone H1 (represent cdk activity) was measured by scintillation counting or by SDS-polyacrylaimde gel electrophoresis. The direct inhibitory effects of Meisoindigo and NATURA were also measured by reaction of immuno-purified specific enzyme from untreated cells directly with the Meisoindigo or NATURA.\nLNCaP cells grown exponentially were exposed to different concentrations of NATURA for 24 hrs. […] The upper panels (A & B) are imagines of the films from SDS-PAGE, and lower panels represent the density measured by an Imagine Densitometer from the same films (expressed as percent of control)."}, "[6]": {"biological_target": "T1, immuno-purified cdk2 from LNCaP cells (Homo sapiens, UniProt P24941)", "T1 construct": "Two hundred mg of total protein extracts were immuno-precipitated with cdk2 antibody overnight at 4° C", "assay": "Direct inhibition of immuno-purified cdk2 activity in vitro", "assay_type": "biochemical", "experimental": "as §1\nWhen immuno-purified cdk2 from LNCaP cells was reacted with histone H1 in the presence of different concentrations of NATURA-β and γ-[^32P]-ATP (2.5 μCi/[…]), the enzyme activity was decreased in a concentration-dependent manner.\nTwo hundred mg of total protein extracts were immuno-precipitated with cdk2 antibody overnight at 4° C. After 4 washes with PBSTDS, and once with kinase assay buffer, the immuno-purified enzyme was then reacted for 10 min with 10 mg of histone H1 in the presence of different concentrations of NATURA or 50 mM of genistein (as a positive control) and γ-[^32P]-ATP (2.5 mCi/10 mM). The phosphorylated histone H1 (reflecting cdk2 activity) was detected either by SDS-PAGE (upper panel), or radioactive scintillation counting (lower panel, after eliminating free γ-[^32P]-ATP)."}, "[7]": {"system": "protein kinase C (PKC)", "assay": "PKC activity from treated LNCaP cells", "assay_type": "cell-based, Human", "conditions": "as high as 15 μM, 24 hrs", "experimental": "as §1, with “The immuno-precipitates were washed 4 times with protein extraction buffer and once with kinase assay buffer, and reacted with 75 μg/ml histone H1 in the presence of [γ-^32P]-ATP (2.5 μCi/10 μM).” left out, “NATURA. […]” for “NATURA.”\n(§2) LNCaP cells at exponential growth phase were exposed to different concentrations of NATURA (panel A & B) for 24 hrs, or to PD98059 (panel C) for 15 min. […] Upper panels are the imagines of x-ray films from SDS-PAGE, and lower panels represent the densities of each band from the films determined by an Imagine Densitometer from the same films (expressed as the percent of control)."}, "[8]": {"system": "extracellular signal-regulated protein kinase 2 (ERK2)", "assay": "ERK2 activity from treated LNCaP cells", "assay_type": "cell-based, Human", "conditions": "as high as 15 μM, 24 hrs", "experimental": "as §1, with “The immuno-precipitates were washed 4 times with protein extraction buffer and once with kinase assay buffer, and reacted with 75 μg/ml histone H1 in the presence of [γ-^32P]-ATP (2.5 μCi/10 μM).” left out, “NATURA. […]” for “NATURA.”\nas §2"}, "[9]": {"assay": "Solubility description", "assay_type": "physicochemical"}, "[10]": {"conditions": "oral, 5 and 10 mg/kg daily for 6 months"}}, "note": "Like-named read-outs stand apart in the source and are kept apart here.", "data": [{"compound": "CN1C(=O)/C(=C2/C(=O)Nc3ccccc32)c2ccccc21", "note": "[Meisoindigo]", "values": [{"measurement": "Inhibition (%)", "setting": "[1]", "result": "48.6 ± 4.1", "unit": "%"}, {"measurement": "Tumor Size X ± SD", "setting": "[1]", "result": "1.80 ± 0.15"}, {"measurement": "histochemical examinations", "setting": "[2]", "result": "cellular edema, fatty degeneration, and scatter hyperplasia inflammation in liver tissues"}, {"measurement": "biochemical changes of blood, liver, and kidney", "setting": "[2]; po, 10 mg/kg", "result": "No biochemical changes"}, {"measurement": "clinical observations", "setting": "[2]; po, 10 mg/kg", "result": "Minor gastro intestinal irritations were observed occasionally"}, {"measurement": "clinical observations", "setting": "[2]; po, 20 mg/kg", "result": "intestinal irritations at various degrees"}, {"measurement": "tested parameters", "setting": "[2]; po, 20 mg/kg", "result": "No abnormalities"}, {"measurement": "pathological examination of heart, liver, lung, kidney, stomach, gastro intestine, testis, ovary, lymph node", "setting": "[3]; 24 hours after termination of 6 months dosing", "result": "No abnormalities"}, {"measurement": "clinical observations", "setting": "[3]; [10]", "result": "minor gastro-intestinal irritations"}, {"measurement": "hemogram, functions of liver (SGPT), kidney (BUN) and heart (ECG) vs control", "setting": "[3]; [10]", "result": "No significant differences"}, {"measurement": "reverse mutations (Ames test)", "setting": "[4]", "result": "No induction of reverse mutations"}]}, {"compound": "CC(=O)OC1COC(N2C(=O)/C(=C3/C(=O)Nc4ccccc43)c3ccccc32)C(OC(C)=O)C1OC(C)=O", "note": "[NATURA, 1-(β-D-O-Triacetyl-xylopyranosyl)-isoindigo]", "values": [{"measurement": "inhibition of cdk2 enzyme activity", "setting": "[5]; 5.0 μM", "result": "approximately 46%"}, {"measurement": "inhibition of cdk2 enzyme activity", "setting": "[5]; 15 μM", "result": "~92", "unit": "%"}, {"measurement": "inhibition at 10 µM", "setting": "[6]; 10 μM compound, ATP concentration as high as 100 μM, read-out: inhibitory effect on immuno-purified cdk2, ATP competing assay", "result": "> 50", "unit": "%"}, {"measurement": "IC50", "setting": "[6]; immuno-purified cdk2, histone H1, γ-[32P]-ATP 2.5 μCi/20 μM", "result": "1600 ± 200", "unit": "nM"}, {"measurement": "effect on PKC activity", "setting": "[7]", "result": "No inhibitory effect"}, {"measurement": "effect on ERK2 activity", "setting": "[8]", "result": "No inhibitory effect"}, {"measurement": "solubility in dimethyl sulfoxide (DMSO)", "setting": "[9]", "result": "soluble"}, {"measurement": "solubility in ethanol, acetone, chloroform", "setting": "[9]", "result": "slightly dissolves"}, {"measurement": "solubility in water", "setting": "[9]", "result": "rarely dissolves"}]}]}
